{"source": "patent US9623008B2", "about": "“Targeting abnormal DNA repair in therapy-resistant breast and pancreatic cancers” (STC.UNM, priority 2012, dated 2017)", "type_in_all_cases": "cell-based", "key": {"[1]": {"test_system": "MCF10A", "assay": "MTT cell proliferation assay, MCF10A", "conditions": "single agents, 72 hours, read-out: IC50, growth", "description": "(§1) Cells were grown in 96-well plates with DNA ligase I/III inhibitor L67 (up to 60 μmol/L) and/or the PARP inhibitor ABT888 (up to 80 μmol/L) for 72 hours. Approximately 20 hours prior to evaluation, MTT labeling reagent (MTT in PBS; Roche) was added to each well. After incubating for 4 hours with the MTT labeling reagent, solubilization solution (10% SDS in 0.01 mol/L HCl; Roche) was added to solubilize the formazan salt crystals. The results were spectrophotometrically quantified by a VersaMax Microplate Reader at a wavelength of 550 nm and a reference wavelength of 650 nm. The effect of combining the DNA repair inhibitors was analyzed by determining the combination index (CI) described by Chou and Talalay (18, 19) with Calcusyn software (version 2.0; Biosoft). This calculation takes into account of both potency (median dose, Dm or IC50) and the shape of the dose-effect curve (the m value) to calculate the CI. L67 and ABT888 were combined at fixed ratios of doses that corresponded to 0.0001, 0.001, 0.005, 0.01, 0.05, 0.1, 0.5, 1, and 10 times the individual IC50 values. Synergy, additivity, and antagonism are defined as CI<1, CI ¼ 1, and CI>1, respectively."}, "[2]": {"test_system": "tumorigenic cell lines (MCF7, TAM1, TAM2, TAM3, LTLT)", "assay": "Colony survival assay, MCF7 and therapy-resistant derivatives", "conditions": "L67 0.5 μmol/L or ABT888 0.125 μmol/L alone, 10-day growth, compared with MCF10A", "description": "(§2) Cells were seeded at a density of 1,000 cells per well in methylcellulose-based medium in the presence of DNA ligase I/III inhibitor, L67 (0.5 μmol/L; ref. 10); PARP inhibitor, ABT888 (0.125 μmol/L); or L67 (0.5 μmol/L) and ABT888 (0.125 μmol/L) for approximately 10 days. Colonies were stained with 2-(4-iodophenyl)-3-(4-nitrophenyl)-5-phenlytetrazolium chloride (1 mg/mL) for 16 to 24 hours before evaluation. Vital colonies were counted with an automated image analysis system (Omincon FAS IV, BIOSYS GmbH). Experiments were conducted at least 3 times, and results are representative of the mean of 3 independent experiment ±SEM."}, "[3]": {"test_system": "breast cancer cell lines", "assay": "MTT cell proliferation assay, breast cancer cell lines", "conditions": "single agents, all the breast cancer cell lines, 72 hours; read-out: IC50, growth and viability", "description": "as §1"}, "[4]": {"test_system": "MCF7 cells following siRNA knockdown of Ku70", "assay": "Colony survival assay, MCF7 after siRNA knockdown of Ku70", "conditions": "Ku70 knockdown versus siRNA control, 1 μmol/L, 10-day growth", "description": "as §2\nTarget plus SMART pool siRNA oligonucleotides for G22P1, DNA ligase III, and Ku70 mRNAs were purchased from Dharmacon RNA Technologies. The oligonucleotides were transiently transfected into cells with Amaxa Nucleofector Kit V (VCA-1003) in Nucleofector II Amaxa Biosystems. For transfection, […] of 20 μmol/L siRNA was used per 2×10^6 cells. […] Cells were harvested for Western blotting 72 hours after transfection. siRNA nontargeting pool (Dharmacon RNA Technologies) was used as a control."}}, "note": "Entries after “also recorded” stand apart in the source; their conditions may differ. Where two headings read alike, the source gives them in different places."}
{"smiles": "Cc1c(Br)cc(NCC(=O)NN=Cc2cc([N+](=O)[O-])ccc2O)cc1Br", "note": "[L67]", "values": [{"measurement": "IC50", "setting": "[1]", "result": "~6", "unit": "µM"}, {"measurement": "colony survival, inhibitor alone", "setting": "[2]", "result": "small reductions; also recorded: little effect"}, {"measurement": "IC50", "setting": "[3]", "result": "~6", "unit": "µM"}]}
{"smiles": "CC/C(=C(\\c1ccccc1)c1ccc(OCCN(C)C)cc1)c1ccccc1", "note": "[tamoxifen]", "values": [{"measurement": "sensitivity (colony survival)", "setting": "[4]", "result": "decreased sensitivity"}]}
{"smiles": "N#Cc1ccc(C(c2ccc(C#N)cc2)n2cncn2)cc1", "note": "[letrozole]", "values": [{"measurement": "sensitivity (colony survival)", "setting": "[4]", "result": "decreased sensitivity"}]}
{"smiles": "C[C@]1(c2nc3c(C(N)=O)cccc3[nH]2)CCCN1", "note": "[ABT888, Veliparib]", "values": [{"measurement": "IC50", "setting": "[1]; Homo sapiens, MCF-10A", "result": "~10", "unit": "µM"}, {"measurement": "colony survival, inhibitor alone", "setting": "[2]", "result": "small reductions"}, {"measurement": "IC50", "setting": "[3]", "result": "~8", "unit": "µM"}]}
